Measured values as given in the NIST ThermoML archive (doi:10.1021/acs.jced.9b00112).

Test: osmotic coefficient (dimensionless); mn = molality of the nth substance listed, in mol/kg
Conditions: 101 kPa, Liquid

O=S(=O)([O-])[O-].[Ca+2] [calcium sulfate] + O
Conditions	osmotic coefficient
273.12 K, m1 = 0.00937	0.732
273.12 K, m1 = 0.00952	0.731
273.12 K, m1 = 0.01046	0.723
273.12 K, m1 = 0.01092	0.719
273.12 K, m1 = 0.011	0.719
273.13 K, m1 = 0.00526	0.78
273.13 K, m1 = 0.0056	0.774
273.13 K, m1 = 0.00625	0.766
273.13 K, m1 = 0.0067	0.76
273.13 K, m1 = 0.00714	0.755
273.13 K, m1 = 0.00742	0.751
273.13 K, m1 = 0.00782	0.747
273.13 K, m1 = 0.00915	0.734
273.14 K, m1 = 0.00418	0.798
273.14 K, m1 = 0.00487	0.786
